The results in this text go back to article PMC7732531 (Frontiers in Pharmacology, 2020).

Usually Papp A→B stands for how fast a substance crosses the layer from the apical side. Read a low Papp A→B as poor permeation. A word on the Papp B→A: it is how fast a substance crosses the layer from the basolateral side. The term efflux ratio denotes a quotient of directional permeabilities that is used to spot active efflux.

In data set [1] the test system is Caco-2 cells. Description: Transcellular transport experiment with Caco-2 cells. To be noted: for Concentration, A-B-A-90min / Concentration, A-B-B-90min: Caco-2, A→B; for Concentration, A-B-A-90min: apical (donor) side; for Concentration, A-B-B-90min: basolateral (receiver) side; for Concentration, B-A-A-90min / Concentration, B-A-B-90min: Caco-2, B→A; for Concentration, B-A-A-90min: apical (receiver) side; for Concentration, B-A-B-90min: basolateral (donor) side; for Concentration, DOA: Caco-2, apical donor at time 0; for Concentration, DOB: Caco-2, basolateral donor at time 0. The procedure: (§1) Caco-2 cell lines were cultured (ATCC, Manassas, VA, United States) as described previously ([Liu et al., 2014]). Briefly, the cells were cultured at 37°C in 5% CO2 at 90% humidity in DMEM high glucose medium containing 20% fetal bovine serum, 1% nonessential amino acids, 100 U/ml penicillin and 1% streptomycin. For the efflux studies, the cells were seeded onto polyethylene terephthalate Millicell® cell culture inserts (0.4 μm pore size, 6.5 mm diameter, Millipore Corporation, Billerica, MA, United States) at a density of 1.7 × 10^5 cells/ml. The culture medium was refreshed on the day after seeding, after which it was refreshed every other day and on the day before the transport experiment. The cells were cultured for 20–22 days after seeding and then evaluated by measuring the transepithelial electrical resistance (TEER) (Millicell ERS®, Millipore Corporation) before experiments. […] Transepithelial permeability studies for YL-IPA08 (10 μM) were conducted from apical to basolateral side (A-B) and basolateral to apical side (B-A) for 120 min 0.2% BSA was included in the receiver solution to avoid nonspecific binding. At 60, 90, and 120 min, half volume of solution from receiver side was withdrawn, and same volume of HBSS was immediately added. Obtained samples were precipitated by adding 4× volumes of acetonitrile containing IS and centrifuged. The supernatants were stored in −20°C until further analysis by LC-MS/MS.
(§2) The in vitro t1/2 in liver microsomal incubation was calculated from the semi-log plot of percentage remaining vs. incubation time and intrinsic clearance (Clint, ml/min/mg protein) was calculated as Eq. 1: CLint=0.693/in vitro t1/2×volume of incubation (μl)/amount of microsomal protein in incubation (mg) (1) ([Suzuki et al., 2003]).Apparent permeability was obtained according to the equation Papp = (dQ/dt)/(A × C0), where dQ/dt is the mass transport rate (determined from the slope of the amount transported vs. time plot), A is the surface area of the monolayer, and C0 is the initial concentration of YL-IPA08 in the donor chamber ([Suzuki et al., 2003]). The efflux ratio was calculated for each study using the following equation: […] = Papp(B–A)/Papp(A–B), where Papp(B–A) and Papp(A–B) represent apparent drug permeability in the B to A and A to B direction, respectively. An efflux ratio greater than 2 indicates net efflux.
(Caco-2 cells form a polarised layer with tight junctions and transporters.)

Assay in data set [2]: as above
To be noted: human, Caco-2. How it is done: as §1, §2

A short description of data set [3]: Protein binding by rapid equilibrium dialysis, rat plasma. To be noted: 1 µM. How it is done: The fraction of unbound YL-IPA08 in plasma and liver microsomes of rat and human, and brain homogenates of rat were determined utilizing Rapid Equilibrium Dialysis method ([Waters et al., 2008]). Rat brain homogenate was harvested in 4-fold volume (w/v) of PBS (pH 7.4). YL-IPA08 were spiked into fresh plasma, rat brain homogenate, liver microsomes (0.2 mg/ml protein) at concentration of 1 µM, and then dialyzed against […] on a shaker at 37°C for 4 h. To avoid the high non-specific binding of YL-IPA08, 0.01% Tween 80 was added in the incubation mixture. At the end of the incubation, protein was precipitated with acetonitrile (containing IS) and analyzed by LC-MS/MS. Phenacetin, quinidine, and warfarin were selected as positive control for the protein binding test.
The unbound fraction of YL-IPA08 in plasma or liver microsomes (ƒu,x) was calculated as shown in Eq. 2, and unbound fraction in the tissue homogenate (ƒu,b) was calculated according to Eq. 3. fu,x = Concbuffer chamber/Concplasma/liver microsomes chamber (2) fu,b = Concbuffer chamber/Concbrain homogenate chamber (3) The measured unbound fractions would be higher when a tissue is homogenized and diluted in buffer, the unbound fractions in an undiluted tissues (ƒu,brain) were calculated using Eq. 4 ([Kalvass and Maurer, 2002]). Undiluted fu,brain=1/D/((1/fu,brain homogenate)−1)+1/D (4) Where D represents the fold of dilution factor in brain homogenates. The free fraction of plasma and undiluted tissue is used in tissue-to-plasma exposure ratio calculation.
In general terms: In equilibrium dialysis free small molecules cross a membrane that holds back macromolecules.

Regarding `C[C@H]1O[C@@H](O[C@H]2[C@@H](O)C[C@H](O[C@H]3[C@@H](O)C[C@H](O[C@H]4CC[C@@]5(C)[C@H](CC[C@@H]6[C@@H]5C[C@@H](O)[C@]5(C)[C@@H](C7=CC(=O)OC7)CC[C@]65O)C4)O[C@@H]3C)O[C@@H]2C)C[C@H](O)[C@@H]1O` [Digoxin], in data set [1], the “Concentration, A-B-A-90min” value stood at 8.117 ± 0.473 µM; the “Concentration, A-B-B-90min” value was 0.009 ± 0.002 µM; the “Concentration, B-A-A-90min” value turned out to be 0.203 ± 0.027 µM; the “Concentration, B-A-B-90min” value was determined as 8.867 ± 0.388 µM. Besides, in data set [1], the “Concentration, DOA” value was determined as 11.683 ± 3.499 µM and the “Concentration, DOB” value was determined as 12.667 ± 2.619 µM. In addition, in data set [2], the apical-to-basolateral permeability (Papp A→B) at 120 min, 10 μM came out at 0.45 ± 0.17 ×10⁻⁶ cm/s; the Papp B→A at 120 min, 10 μM came to 2.63 ± 0.7 ×10⁻⁶ cm/s; the efflux ratio at 120 min, 10 μM is 6.25.
As to `CC(C)NCC(O)COc1cccc2ccccc12` (stereo not drawn) [Propranolol], in data set [1], the “Concentration, A-B-A-90min” value was 4.608 ± 0.43 µM; the “Concentration, A-B-B-90min” value is 0.079 ± 0.026 µM; the “Concentration, B-A-A-90min” value came to 0.172 ± 0.019 µM; the “Concentration, B-A-B-90min” value turned out to be 7.267 ± 0.597 µM. In data set [1], the “Concentration, DOA” value stood at 10.633 ± 2.369 µM and the “Concentration, DOB” value amounted to 10.367 ± 1.118 µM. Also, in data set [2], the Papp A→B at 120 min, 10 μM was found to be 4.35 ± 2.06 ×10⁻⁶ cm/s; the Papp B→A at 120 min, 10 μM is 2.78 ± 0.09 ×10⁻⁶ cm/s; the efflux ratio at 120 min, 10 μM is 0.63.
As for `CCOc1ccc(NC(C)=O)cc1` [phenacetin, reference compound], the “Protein biding (%)” value in data set [3] (Rat plasma, dialysis 4 h) was 58.48 ± 2.26%.
Turning to `C=C[C@H]1C[N@@]2CC[C@H]1C[C@@H]2[C@@H](O)c1ccnc2ccc(OC)cc12` [quinidine, reference compound], the “Protein biding (%)” value in data set [3] (Rat plasma, dialysis 4 h) is on record as 78.08 ± 4.49%.
On to `CC(=O)CC(c1ccccc1)c1c(O)c2ccccc2oc1=O` (stereo not drawn) [warfarin, reference compound], for which the “Protein biding (%)” value in data set [3] (rat, 4 h) is 99.67 ± 0.08%.
